Results reported in patent US20220249415A1, “COMPOSITION OF AZELAIC ACID HAVING ADIPOSE TRIGLYCERIDE HYDROLYSIS EFFECT” (Korea University Research and Business Foundation, priority 2018, published 2022).
Positions count from the first letter of the chain named.

Tests used:
3T3-L1 adipocytes = assay: Western blot of phosphorylation of CREB and HSL in 3T3-L1 adipocytes; format: cell-based, mouse; details: azelaic acid 50 μM, 2 hours, vs control
Text: When the PKA protein activity is increased by azelaic acid, phosphorylation of target proteins of PKA is increased. Therefore, phosphorylation of cAMP-response element binding protein (CREB) and hormone-sensitive lipase (HSL) known as target proteins of PKA was confirmed by a western blot experiment. […] Primary antibodies used in the experiment were anti-phospho-CREB and anti-phospho-HSL antibodies (Santa Cruz, Calif., U.S.).

ob/ob mice = assay: Anti-obesity effect, oral administration to genetically obesity-induced ob/ob mice; format: in vivo, mouse; details: 50 mg/kg oral
Procedure: After orally administering azelaic acid to an ob/ob mouse (Samtako, Seoul, Korea) corresponding to a genetically obesity-induced mouse at a concentration of 50 mg/kg, a degree of obesity thereof was compared with that of a control group to which azelaic acid was not administered. More specifically, an increase in body weight, a feed intake amount, body fat, blood indices, blood lipid indices, a weight of liver tissue, ALT and AST corresponding to hepatotoxicity indices, and energy metabolism were analyzed. Changes in body weight in azelaic acid administration group and a control group were observed once a week for an experiment period of 6 weeks. Body fats (total fat, subcutaneous fat, and abdominal fat) of mice in the azelaic acid administration group to which azelaic acid was orally administered for 6 weeks and a control group were measured through micro CT image analysis. The subcutaneous fat was quantified for the entire site of the mouse, and the abdominal fat was calculated by quantifying an amount of abdominal fat at the 15th to 20th lumbar spine sites of the mouse. In order to evaluate an effect on mouse lipid metabolism of azelaic acid in the administration group to which azelaic acid was orally administered for 6 weeks and the control group, concentrations of blood triglycerides, adiponectin, and cholesterol were measured. Weights of the liver tissue, ALT, and AST of the mice in the azelaic acid administration group to which azelaic acid was orally administered for 6 weeks and the control group were measured.

OR2K2 [1] = molecular target: T1, OR2K2 (Homo sapiens, UniProt Q8NGT1, D270A); assay: Luciferase assay of OR2K2 mutants transfected into Hana3A cells; format: cell-based; details: OR2K2 D270A mutant in Hana3A cells
T1 construct: expressed in transfected cells; host or cells: Hana3A
T1 sequence (Q8NGT1 1-316 D270A): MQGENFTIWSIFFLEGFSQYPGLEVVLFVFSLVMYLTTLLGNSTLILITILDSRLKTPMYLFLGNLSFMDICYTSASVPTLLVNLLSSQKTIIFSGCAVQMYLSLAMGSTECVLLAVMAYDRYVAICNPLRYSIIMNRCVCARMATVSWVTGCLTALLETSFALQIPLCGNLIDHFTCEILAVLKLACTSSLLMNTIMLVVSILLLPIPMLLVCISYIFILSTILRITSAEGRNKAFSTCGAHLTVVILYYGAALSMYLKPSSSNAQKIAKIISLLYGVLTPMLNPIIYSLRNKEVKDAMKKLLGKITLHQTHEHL
Text: (§1) In order to confirm the binding site of the olfactory receptor OR2K2 protein that binds to azelaic acid, among amino acids, Y120, which is a tyrosine (Y) residue, E159, which is a glutamate (E) residue, and D270, which is an aspartate (D) residue, were predicted through in-silico modeling, and the corresponding position of the predicted amino acid residue was subjected to site-directed mutagenesis to obtain a mutant. For negative controls, Y120A, E159A, and D270A mutants in which all three amino acid residues were replaced with alanine were used. For positive controls, Y120F, E159D, and D270E mutants, including Y120F replaced with phenylalanine (F) for Y120, E159D replaced with aspartate for E159, and D270E replaced with glutamate for D270, were used.
(§2) The cDNA clone including the sequence of each OR2K2 mutant for measuring the binding affinity of azelaic acid was transfected into Hana3A cells, and a luciferase assay was performed. […] This is deemed to be because azelaic acid binds to OR2K2 by reacting the E159 and D270 moieties of OR2K2 with both carboxyl groups of azelaic acid.

OR2K2 [2] = molecular target: T2, OR2K2 (Homo sapiens, UniProt Q8NGT1, E159A); assay: as above; format: cell-based; details: OR2K2 E159A mutant in Hana3A cells
T2 construct: expressed in transfected cells; host or cells: Hana3A
T2 sequence (Q8NGT1 1-316 E159A): T1 sequence (Q8NGT1 1-316 D270A) with E159A, A270D
Text: as §1, §2

OR2K2 [3] = assay: as above; format: cell-based, human; details: OR2K2 with both D270 and E159 mutated, Hana3A cells
Text: as §1, §2

C57BL/6 mice = assay: Subcutaneous injection in high-fat diet fed male C57BL/6 mice; format: in vivo, mouse; details: high-fat diet male C57BL/6 mice, 50 mg/kg subcutaneously, 3.5 weeks
Procedure: After 4 weeks of high-fat diet feeding in male C57BL/6 mice (7-8 per group), 50 mg/kg of azelaic acid was administered subcutaneously for 3.5 weeks, and Saxenda, which is used as an anti-obesity drug, was administered as a positive control.

- activity of azelaic acid (luciferase) (OR2K2 [1]): statistically significantly decreased
- activity of azelaic acid (luciferase) (OR2K2 [2]): statistically significantly decreased
Compound: O=C(O)CCCCCCCC(=O)O [azelaic acid, nonanedioic acid]
- phosphorylation of CREB (3T3-L1 adipocytes): rapidly increased
- phosphorylation of HSL (3T3-L1 adipocytes): rapidly increased
- concentration of blood cholesterol (ob/ob mice; 6 weeks): significantly decreased
- concentration of blood triglyceride (ob/ob mice; 6 weeks): significantly decreased
- weight of the liver tissue (ob/ob mice; 6 weeks): decreased
- body weight (ob/ob mice; 6 weeks, on and after the first week, vs control group): significantly decreased
- ALT (hepatotoxicity index) (ob/ob mice; 6 weeks, vs control group): no large difference
- AST (hepatotoxicity index) (ob/ob mice; 6 weeks, vs control group): no large difference
- abdominal fat (micro CT) (ob/ob mice; 6 weeks, vs control group): significantly decreased
- subcutaneous fat (micro CT) (ob/ob mice; 6 weeks, vs control group): significantly decreased
- total fat (micro CT) (ob/ob mice; 6 weeks, vs control group): significantly decreased
- feed intake amount (ob/ob mice; final week, vs control group): no significant difference
- azelaic acid reaction (luciferase) (OR2K2 [3]): statistically significantly reduced
- body weight (C57BL/6 mice): reduced body weight
- subcutaneous fat (C57BL/6 mice): reducing subcutaneous fat
